Results on one substance are retold here after patent US9315531B2, “Titanocene-gold derivatives comprising thiolato ligands” (Research Foundation of the City University of New York, priority 2014, dated 2016).

For data set [1], the system named is HEK-293T. Put plainly: Cell viability assay (XTT), HEK-293T. It counts as cell-based. The following applies: 72 h incubation; non-tumorigenic human embryonic kidney cell line. A general note: Tetrazolium dyes change colour on reduction, which living cells bring about.
Experimental: HEK-293T cells were newly purchased from ATCC (Manassas, Va., USA) and maintained in Dulbecco's modified Eagle's medium (DMEM) (Mediatech) supplemented with 10% FBS, 1% NEAA and 1% PenStrep. […] All cells were cultured at 37° C. and 5% CO2 in a humidified incubator.
Data set [2] is described as follows: Stability in solution (DMSO-d6, CDCl3, DMSO/PBS). It counts as physicochemical. The source says:
Both compound 2 and compound 3 were less acidic than titanocene dichloride and were soluble in DMSO/water, DMSO/PBS and DMSO/media (1:99) mixtures at micromolar concentrations. These compounds were unusually stable methyl-containing titanocene moieties that were stable as solids at room temperature, while exposed to air in CDCl3 solution for at least five days.

Data set [3] relates to p90-RSK. Description: Protein kinase expression in Caki-1 whole cell lysates, p90-RSK. Type of data set: cell-based, human. As to conditions: Caki-1, 5 μM, by 12 hours post-treatment. On the procedure: Whole cell lysates of Caki-1 cells treated with compounds 2 or 6 were also evaluated for their effects on the expression levels of selected protein kinases, namely p90-RSK, AKT and MAPKAPK3. […] Because all three enzymes have been implicated in promoting cell migration and therefore are strong targets for anti-metastasis drugs, these findings predict that compound 2 would be effective in controlling metastatic potential of renal tumors.
Cell lysis and immunoblotting: Caki-1 cells were seeded into 10-cm dishes at a density of 2.2×10^6 and incubated for 24 hours. […]
The protein concentration was determined with BCA protein dye reagent (Pierce, Fisher Scientific Pittsburgh, Pa.). Samples were denatured with 5×SDS sample buffer (0.25% bromophenol blue, 0.5 M dithiothreitol (DTT), 50% glycerol 50% (v/v), 10% sodium dodecyl sulfate (SDS) followed by heating at 95° C. for 5 minutes. Proteins were separated by SDS-PAGE, transferred to a PVDF membrane (Millipore Corp.), and probed with MAPKAPK-3 antibody (Cell Signaling Technology, Danvers, Mass., USA), as well as β-actin antibody (Cell Signaling Technology, Danvers, Mass., USA). Immunoreactive bands of primary antibodies were detected using HRP goat anti-rabbit and secondary antibodies were detected with peroxidase-conjugated secondary antibody and detected by chemiluminescence (Pierce Biotechnology, Rockford, Ill.).

Data set [4] relates to Caki-1 renal carcinoma. Put plainly: Caki-1 xenografts in mice, tumor growth. Here is the method:
Study of the effects of 2 in Caki-1 xenografts in mice: twelve female NOD.CB17-Prkdc scid/J (non-obese diabetic—severe combined immunodeficiency) from Jackson Laboratory (Bar Harbor, Me. and Sacramento, Calif., USA) were used for the xenograft experiment (ages 8 to 12 weeks and weighing 19-22 g) were used. Each mouse received 8×10^6 tumor cells subcutaneously without anesthesia. Exponentially growing Caki-1 human kidney cancer cells were suspended in 1:1 ratio 50 μl phosphate-buffered saline (PBS; pH 7.4) plus 50 μl of matrigel (BD Biosciences, San Jose, Calif., USA) were injected subcutaneously on both left and right flank of each mice. The diameter of the tumors was measured once weekly using an electronic digital caliper and the tumor volume (TV) was calculated according to the empirical equation TV=(a)(b^2)×π/6 where a=longest dimension; b=largest dimension orthogonal to a. The median volumes of each group were normalized to the initial tumor volume resulting in the relative tumor volume. […] Treatment started when tumors were palpable (about 6 mm diameter). Mice were randomized to treatment groups based on their starting tumor burden at twelve weeks of age to ensure equivalent distribution between the three groups. At trial end-point the mice were sacrificed and tumors measured again after excision and then processed for further analysis. Histological as well as biochemical evaluations of blood, liver, spleen, and kidney, were conducted.

Data set [5] relates to RPTC. Put plainly: Cell viability assay (XTT), RPTC. Type of data set: cell-based. The following applies: 72 h incubation; human renal proximal tubular cells. From the text: (§1) Cell Culture: Human renal cell carcinoma lines A498, Caki-1 and UO31, as well as the human prostate carcinoma cell lines DU145 and PC3 were newly obtained for these studies from the American Type Culture Collection (ATCC) (Manassas, Va., USA) and cultured in Roswell Park Memorial Institute (RPMI-1640) (Mediatech Inc., Manassas, Va.) media containing 10% fetal bovine serum (FBS, Life Technologies, Grand Island, N.Y.), 1% Minimum Essential Media (MEM) nonessential amino acids (NEAA, Mediatech) and 1% penicillin-streptomycin (PenStrep, Mediatech). HEK-293T cells were newly purchased from ATCC (Manassas, Va., USA) and maintained in Dulbecco's modified Eagle's medium (DMEM) (Mediatech) supplemented with 10% FBS, 1% NEAA and 1% PenStrep. Normal human renal epithelial cells (RPTC) were purchased from Lifeline Cell Technology (Lifeline Cell Technology, Frederick, Md., USA) and maintained in Lifeline's Renal Life Medium from Lifeline Cell Technology supplemented with 2.4 mM L-glutamine, 5 μg/mL rh insulin, 1.0 nM epinephrine, 10 nM triiodothyronine, 0.1 μg/mL hydrocortisone hemisuccinate, 10 ng/mL rhEGF, 0.50% FBS, 5 μg/mL transferrin PS. All cells were cultured at 37° C. and 5% CO2 in a humidified incubator.
Cell Viability Assay: Cells were seeded at a concentration of 5000 cells/90 μl per well of either RPMI or DMEM without phenol red and without antibiotics, supplemented with 10% FBS and 2 mM L-glutamine into tissue culture grade 96-well flat bottom microplates (BioLite Microwell Plate, Fisher Scientific, Waltham, Mass., USA) and grown for 24 h at 37° C. in a humidified incubator. Afterwards, the intermediate dilutions of the compounds were added to the wells (10 μL) to obtain a final concentration ranging from 0.1 to 200 μM, and the cells were incubated for 24 h or 72 h. […] The optical absorbance of each well in a 96-well plate was quantified using BioTek ELx808 absorbance microplate reader (BioTek Winooski, Vt.) set at 450 nm wavelength. The percentage of surviving cells was calculated from the ratio of absorbance of treated to untreated cells.

Data set [6] deals with Caki-1. Put plainly: Cell viability assay (XTT), Caki-1. Type of data set: cell-based, human. The following applies: 72 h incubation.
Excerpt: as §1
The optical absorbance of each well in a 96-well plate was quantified using BioTek ELx808 absorbance microplate reader (BioTek Winooski, Vt.) set at 450 nm wavelength. The percentage of surviving cells was calculated from the ratio of absorbance of treated to untreated cells.

On to “[(η-C5H5)2TiMe(μ-mba)Au(PPh3)] [Compound 2]”, for which the IC50 (as a rule, the midpoint of a concentration-inhibition curve) in data set [1] was 490 ± 0.8 nM; in data set [5], 2670 ± 120 nM; in data set [6] it was 120 ± 3 nM. Moreover, in data set [2] (DMSO-d6), the “half-life in DMSO-d6” value is reported as “eight”. Moreover, the “half-life fold larger than corresponding compound 6 / compound 7” value in data set [2] (DMSO-d6, same solvent) is “sixteen”. Besides, the “UV-vis spectra over time” value in data set [2] (micromolar concentration in 1:99 DMSO/PBS, 23 h, physiological pH) is given as “did not change over time”. Further, the “expression of p90-RSK” value in data set [3] is recorded as “dramatic decreases in expression”. Besides, in data set [4] (between day 1 and day 28 of treatment, total of 14 doses), the “decrease in tumor size (shrinkage) from the starting volume” value stood at 67%. For the same substance, the “Primary Tumor” value in data set [4] (tumor measured on day 28, after 14th dose, every other day dosing (compound 6 […], compound 2 3 mg/kg)) came to 41.33 ± 13.00 mm^3. In data set [4] (xenograft protocol, 14 doses every other day), the “weight loss in treated mice” value is reported as “no weight loss”.
